Experiments:
rgRSV224 virus = test: Antiviral activity: rgRSV224 (GFP) replication in HeLa cells; assay type: cell-based, respiratory syncytial virus (RSV); conditions: human respiratory syncytial virus, HeLa, 72 h, read-out: RSV HELA EC50 (μM), rgRSV224 virus (MOI=1), HeLa cells, GFP expression three days post-virus exposure
in vitro = conditions: human, TOX HELA CC50 (μM)

Row | Compound | EC50 (rgRSV224 virus) [µM] | melting point [°C] | CC50 at 3 days (in vitro) [µM]
1 | C[C@@H]1c2ccccc2CCN1C(=O)c1cc(C2CC2)n2nc(-c3ccc(N4CCCC(O)C4)cc3F)cc2n1 (stereo partly drawn) [Compound 75, 1-(4-{7-Cyclopropyl-5-[(1R)-1-methyl-1,2,3,4-tetrahydroisoquinoline-2-carbonyl]-pyrazolo[1,5-a]pyrimidin-2-yl}-3-fluorophenyl)piperidin-3-ol] | 0.076 | 197.51 | > 100
2 | C[C@@H]1c2ccccc2CCN1C(=O)c1cc(C2CC2)n2nc(-c3ccc(N4CCC(S(N)(=O)=O)C4)cc3F)cc2n1 (stereo partly drawn) [Compound 19, 1-(4-{7-Cyclopropyl-5-[(1R)-1-methyl-1,2,3,4-tetrahydroisoquinoline-2-carbonyl]-pyrazolo[1,5-a]pyrimidin-2-yl}-3-fluorophenyl)pyrrolidine-3-sulfonamide] | 0.041 | 308.63 | 72.3
3 | C[C@@H]1c2ccsc2CCN1C(=O)c1cc(C2CC2)n2nc(-c3ccc(N4CC[C@@H](CC(N)=O)C4)cc3F)cc2n1 (single isomer, unassigned) [Compound 43, 2-[(3S)-1-(4-{7-Cyclopropyl-5-[(4*R)-4-methyl-4,5,6,7-tetrahydro-thieno[3,2-c]pyridine-5-carbonyl]pyrazolo[1,5-a]pyrimidin-2-yl}-3-fluorophenyl)pyrrolidin-3-yl]acetamide] | 0.017 | 214.36 | 29.8
4 | C[C@@H]1c2ccccc2CCN1C(=O)c1cc(C2CC2)n2nc(-c3ccc(N4CC(O)C4)cc3F)cc2n1 [Compound 67, 1-(4-{7-Cyclopropyl-5-[(1R)-1-methyl-1,2,3,4-tetrahydroisoquinoline-2-carbonyl]-pyrazolo[1,5-a]pyrimidin-2-yl}-3-fluorophenyl)azetidin-3-ol] | 0.03 | 205.81 | 36.5
5 | C[C@@H]1c2ccccc2CCN1C(=O)c1cc(C2CC2)n2nc(-c3ccc(N4CCC5(COC5)C4)cc3F)cc2n1 [Compound 5, (1R)-2-[7-Cyclopropyl-2-(2-fluoro-4-{2-oxa-6-azaspiro[3.4]octan-6-yl}phenyl)pyrazolo[1,5-a]pyrimidine-5-carbonyl]-1-methyl-1,2,3,4-tetrahydroisoquinoline] | 0.118 | 220.25 | > 25
6 | C[C@@H]1c2ccccc2CCN1C(=O)c1cc(C2CC2)n2nc(-c3ccc(N4CC[C@@H](C(N)=O)[C@@H]4C)cc3F)cc2n1 (single isomer, unassigned) [Compound 82, (2*S,3*R)-1-(4-{7-Cyclopropyl-5-[(1R)-1-methyl-1,2,3,4-tetrahydroisoquinoline-2-carbonyl]pyrazolo[1,5-a]pyrimidin-2-yl}-3-fluorophenyl)-2-methylpyrrolidine-3-carboxamide] | 0.033 | 294.89 | 33.1
7 | COc1ccc(-c2cc(C(=O)N3CCc4ccccc4[C@H]3C)nc3cc(-c4ccc(N5CC[C@H](C(N)=O)C5)cc4F)nn23)cc1 [Compound 57, (3S)-1-{3-Fluoro-4-[7-(4-methoxyphenyl)-5-[(1R)-1-methyl-1,2,3,4-tetrahydro-isoquinoline-2-carbonyl]pyrazolo[1,5-a]pyrimidin-2-yl]phenyl}pyrrolidine-3-carboxamide] | 0.023 | 216.34 | > 100
8 | C[C@@H]1c2ccccc2CCN1C(=O)c1cc(C2CC2)n2nc(-c3ccc(N4CC[C@H](NC(=O)C(F)(F)F)C4)cc3F)cc2n1 [Compound 76, N-[(3S)-1-(4-{7-Cyclopropyl-5-[(1R)-1-methyl-1,2,3,4-tetrahydroisoquinoline-2-carbonyl]pyrazolo[1,5-a]pyrimidin-2-yl}-3-fluorophenyl)pyrrolidin-3-yl]-2,2,2-trifluoroacetamide] | 0.246 | 221.2 | > 100
9 | C[C@@H]1c2ccsc2CCN1C(=O)c1cc(C2CC2)n2nc(-c3ccc(N4CC[C@H](CC(N)=O)C4)cc3F)cc2n1 (single isomer, unassigned) [Compound 42, 2-[(3R)-1-(4-{7-Cyclopropyl-5-[(4*R)-4-methyl-4,5,6,7-tetrahydro-thieno[3,2-c]pyridine-5-carbonyl]pyrazolo[1,5-a]pyrimidin-2-yl}-3-fluorophenyl)pyrrolidin-3-yl]acetamide] | 0.025 | 206.84 | 28.9
10 | CNC(=O)CC1CN(c2ccc(-c3cc4nc(C(=O)N5CCc6ccccc6[C@H]5C)cc(C5CC5)n4n3)c(F)c2)C1 [Compound 66, 2-[1-(4-{7-Cyclopropyl-5-[(1R)-1-methyl-1,2,3,4-tetrahydroisoquinoline-2-carbonyl]-pyrazolo[1,5-a]pyrimidin-2-yl}-3-fluorophenyl)azetidin-3-yl]-N-methylacetamide] | 0.04 | 143.13 | 36.4
11 | CC(=O)N[C@@H]1CCN(c2ccc(-c3cc4nc(C(=O)N5CCc6ccccc6[C@H]5C)cc(C5CC5)n4n3)c(F)c2)C1 [Compound 7, N-[(3R)-1-(4-{7-Cyclopropyl-5-[(1R)-1-methyl-1,2,3,4-tetrahydroisoquinoline-2-carbonyl]pyrazolo[1,5-a]pyrimidin-2-yl}-3-fluorophenyl)pyrrolidin-3-yl]acetamide] | 0.037 | 189 | 71.5
12 | C[C@@H]1c2ccccc2CCN1C(=O)c1cc(-c2ccc(F)cc2)n2nc(-c3ccc(N4CC[C@H](C(N)=O)C4)cc3F)cc2n1 [Compound 60, (3S)-1-{3-Fluoro-4-[7-(4-fluorophenyl)-5-[(1R)-1-methyl-1,2,3,4-tetrahydroisoquinoline-2-carbonyl]pyrazolo[1,5-a]pyrimidin-2-yl]phenyl}pyrrolidine-3-carboxamide] | 0.029 |  | 41.3
13 | C[C@@H]1c2ccccc2CCN1C(=O)c1cc(C2CC2)n2nc(-c3ccc(N4CC[C@H](C(=O)NS(C)(=O)=O)C4)cc3F)cc2n1 [Compound 40, (3S)-1-(4-{7-Cyclopropyl-5-[(1R)-1-methyl-1,2,3,4-tetrahydroisoquinoline-2-carbonyl]-pyrazolo[1,5-a]pyrimidin-2-yl}-3-fluorophenyl)-N-methanesulfonylpyrrolidine-3-carboxamide] | 0.061 |  | 52.3
14 | C[C@@H]1c2ccccc2CCN1C(=O)c1cc(C2CC2)n2nc(-c3ccc(N4C[C@H](C)[C@@H](O)C4)cc3F)cc2n1 (stereo in doubt) [Compound 99, (7-cyclopropyl-2-(2-fluoro-4-((trans)-3-hydroxy-4-methylpyrrolidin-1-yl)phenyl)pyrazolo[1,5-a]pyrimidin-5-yl)((R)-1-methyl-3,4-dihydroisoquinolin-2(1H)-yl)methanone] | 0.092 |  | > 100
15 | C[C@@H]1c2ccsc2CCN1C(=O)c1cc(C2CC2)n2nc(-c3ccc(N4CC[C@@](C)(CC(N)=O)C4)cc3F)cc2n1 (single isomer, unassigned) [Compound 26, 2-[(3*S)-1-(4-{7-Cyclopropyl-5-[(4*R)-4-methyl-4,5,6,7-tetrahydro-thieno[3,2-c]pyridine-5-carbonyl]pyrazolo[1,5-a]pyrimidin-2-yl}-3-fluorophenyl)-3-methylpyrrolidin-3-yl]acetamide] | 0.02 |  | 29.6
16 | C[C@@H]1c2ccccc2CCN1C(=O)c1cc(-c2cncc(F)c2)n2nc(-c3ccc(N4CC[C@H](C(N)=O)C4)cc3F)cc2n1 [Compound 90, (3S)-1-{3-Fluoro-4-[7-(5-fluoropyridin-3-yl)-5-[(1R)-1-methyl-1,2,3,4-tetrahydro-isoquinoline-2-carbonyl]pyrazolo[1,5-a]pyrimidin-2-yl]phenyl}pyrrolidine-3-carboxamide] | 0.046 | 269.08 | 
17 | C[C@@H]1c2ccccc2CCN1C(=O)c1cc(C2CC2)n2nc(-c3ccc(N4C[C@@H](O)[C@@H](F)C4)cc3F)cc2n1 (relative stereo) [Compound 107, (7-cyclopropyl-2-(2-fluoro-4-(cis-3-fluoro-4-hydroxypyrrolidin-1-yl)phenyl)pyrazolo[1,5-a]pyrimidin-5-yl)((R)-1-methyl-3,4-dihydroisoquinolin-2(1H)-yl)methanone] | 0.017 |  | 21.2
18 | C[C@@H]1c2ccccc2CCN1C(=O)c1cc(C2CC2)n2nc(-c3ccc(N4CC[C@H](O)C4)cc3F)cc2n1 [Compound 14, (3S)-1-(4-{7-Cyclopropyl-5-[(1R)-1-methyl-1,2,3,4-tetrahydroisoquinoline-2-carbonyl]-pyrazolo[1,5-a]pyrimidin-2-yl}-3-fluorophenyl)pyrrolidin-3-ol] | 0.039 |  | 81.2
19 | C[C@@H]1c2ccccc2CCN1C(=O)c1cc(C2CC2)n2nc(-c3ccc(N4CCC(CC(N)=O)CC4)cc3F)cc2n1 [Compound 70, 2-[1-(4-{7-Cyclopropyl-5-[(1R)-1-methyl-1,2,3,4-tetrahydroisoquinoline-2-carbonyl]-pyrazolo[1,5-a]pyrimidin-2-yl}-3-fluorophenyl)piperidin-4-yl] acetamide] | 0.104 |  | 28.2
20 | C[C@@H]1c2ccccc2CCN1C(=O)c1cc(C2CC2)n2nc(-c3ccc(N4CC[C@@H](OC(N)=O)C4)cc3F)cc2n1 [Compound 77, (3R)-1-(4-{7-Cyclopropyl-5-[(1R)-1-methyl-1,2,3,4-tetrahydroisoquinoline-2-carbonyl]pyrazolo[1,5-a]pyrimidin-2-yl}-3-fluorophenyl)pyrrolidin-3-yl carbamate] | 0.082 |  | > 100
21 | C[C@@H]1c2ccccc2CCN1C(=O)c1cc(C2CC2)n2nc(-c3ccc(N4CC[C@H](OC(N)=O)C4)cc3F)cc2n1 [Compound 78, (3S)-1-(4-{7-Cyclopropyl-5-[(1R)-1-methyl-1,2,3,4-tetrahydroisoquinoline-2-carbonyl]pyrazolo[1,5-a]pyrimidin-2-yl}-3-fluorophenyl)pyrrolidin-3-yl carbamate] | 0.055 |  | 47.3

From US11339165B2, “Pyrazolopyrimidines having activity against the respiratory syncytial virus (RSV)” (priority 2017, dated 2022)
